# Measurements as given in patent US10770169B2, “Method of providing a treatment to a subject based on a dynamic pathway map” (THE REGENTS OF THE UNIVERSITY OF CALIFORNIA, priority 2010, dated 2020).
# How the values were obtained:
# [1] = tested on: panel of 55 breast cancer cell lines; assay: Cell growth inhibition assay (Cell Titer Glo, 72 h, 9 doses; GI50, TGI, LC50); type: cell-based, human; settings: value is the negative log10 of mol/L
# [2] = tested on: luminal, basal, claudin-low and ERBB2AMP breast cancer cell lines; assay: Associations of clinically relevant subtypes and response (non-parametric ANOVA or t-test on GI50 ranks); type: cell-based, human; settings: Table 6; most sensitive subtype, FDR p<0.20
# Procedure, shortened: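 GI50 values were compared between cell-line subtype groups by non-parametric ANOVA or t-test on ranks. P-values from three test sets were combined and FDR-corrected. Significant three-group effects were followed by post-hoc comparison of each group against all others, and FDR p<0.20 counted as significant.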
smiles,measurement,setting,value
CC(/C=C/C(=O)NO)=C\[C@@H](C)C(=O)c1ccc(N(C)C)cc1 [Trichostatin A],GI50,"[1]; 600MPE cell line, censored GI50 values",5.18
same,GI50,"[1]; AU565 cell line, censored GI50 values",5.43
same,GI50,"[1]; BT20 cell line, censored GI50 values",4.81
same,GI50,"[1]; BT474 cell line, censored GI50 values",5.00
same,GI50,"[1]; BT483 cell line, censored GI50 values",5.00
same,GI50,"[1]; BT549 cell line, censored GI50 values",5.13
same,GI50,"[1]; CAMA1 cell line, censored GI50 values",5.57
same,GI50,"[1]; HCC38 cell line, censored GI50 values",5.22
same,GI50,"[1]; HCC70 cell line, censored GI50 values",4.84
same,GI50,"[1]; HCC202 cell line, censored GI50 values",6.04
same,GI50,"[1]; HCC1143 cell line, censored GI50 values",4.77
same,GI50,"[1]; HCC1187 cell line, censored GI50 values",5.32
same,GI50,"[1]; HCC1395 cell line, censored GI50 values",4.50
same,GI50,"[1]; HCC1419 cell line, censored GI50 values",4.85
same,GI50,"[1]; HCC1428 cell line, censored GI50 values",5.73
same,GI50,"[1]; HCC1500 cell line, censored GI50 values",4.82
same,GI50,"[1]; HCC1806 cell line, censored GI50 values",4.97
same,GI50,"[1]; HCC1937 cell line, censored GI50 values",4.82
same,GI50,"[1]; HCC1954 cell line, censored GI50 values",4.95
same,GI50,"[1]; HCC2185 cell line, censored GI50 values",4.79
same,GI50,"[1]; HCC3153 cell line, censored GI50 values",4.62
same,GI50,"[1]; LY2 cell line, censored GI50 values",4.86
same,GI50,"[1]; MCF7 cell line, censored GI50 values",5.16
same,GI50,"[1]; MDAMB134VI cell line, censored GI50 values",5.17
same,GI50,"[1]; MDAMB157 cell line, censored GI50 values",4.68
same,GI50,"[1]; MDAMB175VII cell line, censored GI50 values",5.23
same,GI50,"[1]; MDAMB231 cell line, censored GI50 values",5.26
same,GI50,"[1]; MDAMB361 cell line, censored GI50 values",5.09
same,GI50,"[1]; MDAMB415 cell line, censored GI50 values",4.90
same,GI50,"[1]; MDAMB436 cell line, censored GI50 values",4.67
same,GI50,"[1]; MDAMB453 cell line, censored GI50 values",5.23
same,GI50,"[1]; MDAMB468 cell line, censored GI50 values",4.85
same,GI50,"[1]; SKBR3 cell line, censored GI50 values",5.21
same,GI50,"[1]; SUM52PE cell line, censored GI50 values",5.57
same,GI50,"[1]; SUM149PT cell line, censored GI50 values",5.14
same,GI50,"[1]; SUM159PT cell line, censored GI50 values",5.23
same,GI50,"[1]; SUM185PE cell line, censored GI50 values",4.76
same,GI50,"[1]; SUM225CWN cell line, censored GI50 values",4.85
same,GI50,"[1]; SUM1315MO2 cell line, censored GI50 values",4.31
same,GI50,"[1]; T47D cell line, censored GI50 values",5.44
same,GI50,"[1]; UACC812 cell line, censored GI50 values",5.04
same,GI50,"[1]; UACC893 cell line, censored GI50 values",5.54
same,GI50,"[1]; ZR75B cell line, censored GI50 values",5.30
same,GI50,"[1]; ZR751 cell line, censored GI50 values",4.74
same,GI50,[1]; cell line 600MPE,5.18
same,GI50,[1]; cell line AU565,5.43
same,GI50,[1]; cell line BT20,4.81
same,GI50,[1]; cell line BT474,5.00
same,GI50,[1]; cell line BT483,5.00
same,GI50,[1]; cell line BT549,5.13
same,GI50,[1]; cell line CAMA1,5.57
same,GI50,[1]; cell line HCC38,5.22
same,GI50,[1]; cell line HCC70,4.84
same,GI50,[1]; cell line HCC202,6.04
same,GI50,[1]; cell line HCC1143,4.77
same,GI50,[1]; cell line HCC1187,5.32
same,GI50,[1]; cell line HCC1395,4.50
same,GI50,[1]; cell line HCC1419,4.85
same,GI50,[1]; cell line HCC1428,5.73
same,GI50,[1]; cell line HCC1500,4.82
same,GI50,[1]; cell line HCC1806,4.97
same,GI50,[1]; cell line HCC1937,4.82
same,GI50,[1]; cell line HCC1954,4.95
same,GI50,[1]; cell line HCC2185,4.79
same,GI50,[1]; cell line HCC3153,4.62
same,GI50,[1]; cell line LY2,4.86
same,GI50,[1]; cell line MCF7,5.16
same,GI50,[1]; cell line MDAMB134V,5.17
same,GI50,[1]; cell line MDAMB157,4.68
same,GI50,[1]; cell line MDAMB175V,5.23
same,GI50,[1]; cell line MDAMB231,5.26
same,GI50,[1]; cell line MDAMB361,5.09
same,GI50,[1]; cell line MDAMB415,4.90
same,GI50,[1]; cell line MDAMB436,4.67
same,GI50,[1]; cell line MDAMB453,5.23
same,GI50,[1]; cell line MDAMB468,4.85
same,GI50,[1]; cell line SKBR3,5.21
same,GI50,[1]; cell line SUM52PE,5.57
same,GI50,[1]; cell line SUM149PT,5.14
same,GI50,[1]; cell line SUM159PT,5.23
same,GI50,[1]; cell line SUM185PE,4.76
same,GI50,[1]; cell line SUM225CWN,4.85
same,GI50,[1]; cell line SUM1315MO,4.31
same,GI50,[1]; cell line T47D,5.44
same,GI50,[1]; cell line UACC812,5.04
same,GI50,[1]; cell line UACC893,5.54
same,GI50,[1]; cell line ZR75B,5.30
same,GI50,[1]; cell line ZR751,4.74
same,Subtype specificity,[2],Luminal
